Assay results as given in ChEMBL document CHEMBL3638788, “Benzoxazines, benzothiazines, and related compounds having NOS inhibitory activity” (2013).

Tests used:
[1] = target: Nitric oxide synthase, inducible (Homo sapiens, UniProt P35228); assay: Enzyme Assay: Recombinant human inducible NOS (iNOS) was produced in Baculovirus-infected Sf9 cells (ALEXIS). In a radiometric method, NO synthase activity was determined by measuring the conversion of [3H]L-arginine to [3H]L-citrulline. To measure iNOS, 10 uL of enzyme was added to 100 uL of 100 mM HEPES, pH=7.4, containing 1 mM CaCl2, 1 mM EDTA, 1 mM dithiothreitol, 1 uM FMN, 1 uM FAD, 10 uM tetrahydrobiopterin, 120 uM NADPH, and 100 nM CaM. To measure enzyme inhibition, a 15 uL solution of a test substance was added to the enzyme assay solution, followed by a pre-incubation time of 15 min at RT. The reaction was initiated by addition of 20 uL L-arginine containing 0.25 uCi of [3H] arginine/mL and 24 uM L-arginine. The total volume of the reaction mixture was 150 uL in every well.
Sequence of Nitric oxide synthase, inducible (P35228 whole entry): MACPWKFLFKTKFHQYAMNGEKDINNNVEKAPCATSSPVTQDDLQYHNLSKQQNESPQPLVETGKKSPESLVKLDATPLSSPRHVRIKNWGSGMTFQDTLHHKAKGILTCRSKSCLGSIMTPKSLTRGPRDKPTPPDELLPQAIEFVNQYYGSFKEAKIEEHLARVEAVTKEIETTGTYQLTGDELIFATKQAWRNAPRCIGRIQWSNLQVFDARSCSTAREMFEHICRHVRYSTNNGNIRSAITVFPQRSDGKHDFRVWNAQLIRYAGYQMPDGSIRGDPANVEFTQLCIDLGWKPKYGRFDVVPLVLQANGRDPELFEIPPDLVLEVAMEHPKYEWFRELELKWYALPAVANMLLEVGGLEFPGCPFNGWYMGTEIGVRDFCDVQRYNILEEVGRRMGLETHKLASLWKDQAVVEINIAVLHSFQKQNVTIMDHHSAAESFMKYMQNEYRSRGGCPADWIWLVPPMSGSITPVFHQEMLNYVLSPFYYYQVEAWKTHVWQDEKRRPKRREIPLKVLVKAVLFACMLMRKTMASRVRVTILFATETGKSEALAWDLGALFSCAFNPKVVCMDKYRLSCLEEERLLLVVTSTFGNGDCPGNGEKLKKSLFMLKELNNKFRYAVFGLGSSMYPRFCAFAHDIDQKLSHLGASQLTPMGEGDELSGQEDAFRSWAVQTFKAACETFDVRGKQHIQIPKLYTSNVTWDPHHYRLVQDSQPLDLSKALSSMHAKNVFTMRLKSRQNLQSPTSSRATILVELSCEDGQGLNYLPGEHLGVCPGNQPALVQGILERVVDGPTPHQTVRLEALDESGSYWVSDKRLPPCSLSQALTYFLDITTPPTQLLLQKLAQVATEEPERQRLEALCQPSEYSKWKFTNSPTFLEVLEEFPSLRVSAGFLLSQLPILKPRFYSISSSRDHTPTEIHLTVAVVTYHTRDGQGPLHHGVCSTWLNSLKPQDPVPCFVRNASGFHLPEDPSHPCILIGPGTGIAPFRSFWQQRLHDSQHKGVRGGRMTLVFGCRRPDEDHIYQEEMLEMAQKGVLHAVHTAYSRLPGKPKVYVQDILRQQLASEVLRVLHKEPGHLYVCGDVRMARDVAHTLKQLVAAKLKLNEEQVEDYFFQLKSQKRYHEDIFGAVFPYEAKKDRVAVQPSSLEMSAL

[2] = target: Nitric oxide synthase 1 (Homo sapiens, UniProt P29475); assay: (§1) Enzyme Assay: Primary stock solutions of test compounds at a concentration of 6 mM were prepared from the 2 to 5 mg powder. The primary stock solutions of each test compound were prepared freshly in distilled water on the day of study to obtain a final concentration of 6 mM. For determination of IC50 values, 12 test compound concent rations were prepared as 3-fold serial dilutions. Concentration range of test compound utilized for nNOS were 0.001 to 300 μM and for eNOS were 0.003 to 10 00 μM. The vehicle of the test compound or inhibitor was used as blank control. For non-specific activity, 100 μM L-NMMA was used. Runs using the IC50 concentration of L-NAME were done in parallel as controls. All incubations are performed in duplicate.
Sequence of Nitric oxide synthase 1 (P29475 whole entry): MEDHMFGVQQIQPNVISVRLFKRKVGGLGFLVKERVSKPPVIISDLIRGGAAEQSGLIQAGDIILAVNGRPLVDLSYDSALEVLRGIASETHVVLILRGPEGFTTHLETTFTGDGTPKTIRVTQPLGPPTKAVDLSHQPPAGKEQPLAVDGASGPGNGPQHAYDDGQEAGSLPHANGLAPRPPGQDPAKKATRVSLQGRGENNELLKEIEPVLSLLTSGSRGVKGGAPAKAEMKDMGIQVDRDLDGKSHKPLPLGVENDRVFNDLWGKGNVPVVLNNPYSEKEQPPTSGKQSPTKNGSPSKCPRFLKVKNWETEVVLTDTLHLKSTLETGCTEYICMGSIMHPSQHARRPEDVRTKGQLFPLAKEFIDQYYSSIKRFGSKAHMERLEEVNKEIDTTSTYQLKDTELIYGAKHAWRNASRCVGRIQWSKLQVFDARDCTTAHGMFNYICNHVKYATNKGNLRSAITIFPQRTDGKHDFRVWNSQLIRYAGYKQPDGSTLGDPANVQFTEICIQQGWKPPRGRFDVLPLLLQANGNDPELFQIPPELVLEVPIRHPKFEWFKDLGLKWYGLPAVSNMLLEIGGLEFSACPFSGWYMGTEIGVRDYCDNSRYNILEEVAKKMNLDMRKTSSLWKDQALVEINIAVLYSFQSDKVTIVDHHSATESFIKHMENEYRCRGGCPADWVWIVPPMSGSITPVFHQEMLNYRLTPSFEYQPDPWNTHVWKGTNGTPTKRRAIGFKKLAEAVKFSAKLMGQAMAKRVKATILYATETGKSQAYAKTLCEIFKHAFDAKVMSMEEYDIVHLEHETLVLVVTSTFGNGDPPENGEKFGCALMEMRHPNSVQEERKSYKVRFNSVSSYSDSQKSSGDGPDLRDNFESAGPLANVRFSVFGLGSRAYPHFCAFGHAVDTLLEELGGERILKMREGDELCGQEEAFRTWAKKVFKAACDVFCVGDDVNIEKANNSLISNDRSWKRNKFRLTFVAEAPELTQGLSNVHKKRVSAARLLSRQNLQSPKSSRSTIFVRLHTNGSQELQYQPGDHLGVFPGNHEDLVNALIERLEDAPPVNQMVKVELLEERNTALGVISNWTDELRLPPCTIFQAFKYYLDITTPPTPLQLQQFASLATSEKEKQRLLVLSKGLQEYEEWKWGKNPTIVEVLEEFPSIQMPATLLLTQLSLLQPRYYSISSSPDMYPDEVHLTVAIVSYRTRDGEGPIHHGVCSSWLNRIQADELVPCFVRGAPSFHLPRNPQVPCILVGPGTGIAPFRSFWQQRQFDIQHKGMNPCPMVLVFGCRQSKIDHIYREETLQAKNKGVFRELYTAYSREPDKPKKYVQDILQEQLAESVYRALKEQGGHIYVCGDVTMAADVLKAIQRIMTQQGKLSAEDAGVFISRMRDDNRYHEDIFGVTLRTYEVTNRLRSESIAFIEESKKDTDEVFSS

[3] = target: T1, Nitric oxide synthase 3 (Homo sapiens, UniProt P29474); assay: as §1
T1 sequence (P29474 whole entry): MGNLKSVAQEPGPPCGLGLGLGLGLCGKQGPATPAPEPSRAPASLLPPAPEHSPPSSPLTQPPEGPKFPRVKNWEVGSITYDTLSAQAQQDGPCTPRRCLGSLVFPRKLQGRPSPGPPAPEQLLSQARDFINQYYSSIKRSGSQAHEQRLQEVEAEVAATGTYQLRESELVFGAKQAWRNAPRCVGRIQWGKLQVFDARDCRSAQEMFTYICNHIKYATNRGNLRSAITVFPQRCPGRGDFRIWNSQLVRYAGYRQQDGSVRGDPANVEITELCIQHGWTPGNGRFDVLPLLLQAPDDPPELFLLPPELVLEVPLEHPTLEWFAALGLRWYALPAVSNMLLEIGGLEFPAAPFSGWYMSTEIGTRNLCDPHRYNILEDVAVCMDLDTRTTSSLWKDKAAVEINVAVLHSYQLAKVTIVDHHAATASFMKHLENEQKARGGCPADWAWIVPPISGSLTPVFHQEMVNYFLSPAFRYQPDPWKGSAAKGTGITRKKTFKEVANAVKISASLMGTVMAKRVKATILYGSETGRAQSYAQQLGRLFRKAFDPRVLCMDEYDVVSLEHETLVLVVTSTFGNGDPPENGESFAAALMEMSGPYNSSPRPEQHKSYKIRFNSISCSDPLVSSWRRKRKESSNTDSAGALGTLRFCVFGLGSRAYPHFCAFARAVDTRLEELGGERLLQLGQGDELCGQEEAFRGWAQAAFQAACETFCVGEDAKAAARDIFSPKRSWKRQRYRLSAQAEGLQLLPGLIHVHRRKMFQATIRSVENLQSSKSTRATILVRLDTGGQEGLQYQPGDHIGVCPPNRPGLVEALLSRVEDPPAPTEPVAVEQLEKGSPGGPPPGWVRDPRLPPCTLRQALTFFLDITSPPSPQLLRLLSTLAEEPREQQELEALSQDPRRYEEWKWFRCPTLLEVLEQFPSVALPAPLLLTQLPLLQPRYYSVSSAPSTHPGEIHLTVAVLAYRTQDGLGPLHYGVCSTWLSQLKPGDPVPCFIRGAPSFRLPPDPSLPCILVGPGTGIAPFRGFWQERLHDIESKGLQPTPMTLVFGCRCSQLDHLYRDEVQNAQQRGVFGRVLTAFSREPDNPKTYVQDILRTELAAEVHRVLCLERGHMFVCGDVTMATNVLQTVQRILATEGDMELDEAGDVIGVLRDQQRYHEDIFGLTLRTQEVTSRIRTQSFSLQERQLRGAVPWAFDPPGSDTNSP

CN1CCCC1CCN1CCOc2cc(/N=C(\N)c3cccs3)ccc21 (stereo not given) showed an IC50 [1] of 10.6 µM and an IC50 [2] of 0.43 µM.

With CN1CCCC1CCN1C(=O)COc2cc(NC(=N)c3cccs3)ccc21 (stereo not given) the IC50 [1] was greater than 100 µM, the IC50 [3] was 87.2 µM and the IC50 [2] was 2.08 µM.
